Tests used:
[1] = Mutual phase solubility study of Silymarin-CAPTISOL® complex (method A, method B); assay type: physicochemical
Experimental: Two methods, method A and method B, were used to prepare the silymarin-CAPTISOL® complexes and the phase solubility of the various components in the complexes were measured and compared. The silymarin extract was obtained from Indena® (Indena Code: 9065110).
In method A, the Silymarin-CAPTISOL® complex was prepared through a hot extraction method. […] The filtrates were analyzed using HPLC for Taxifolin, Silychristin, Silydianin, Silybin A, Silybin B, Isosilybin A and Isosilybin B after appropriate dilution.
In method B, the Silymarin-CAPTISOL® complex was prepared by combining the CAPTISOL® and silymarin at ambient temperature: 120 mg of the extract was incorporated in 0 10, 20, 40, 60, 80 and 100 mM concentrations of CAPTISOL® solution in water. These samples were shook at room temperature for 3 days. At equilibrium, samples were centrifuged at 10,000 RPM and filtered using Millipore (0.22 μm) syringe filter. The filtrates were analyzed using HPLC for Taxifolin, Silychristin, Silydianin, Silybin A, Silybin B, Isosilybin A and Isosilybin B after appropriate dilution.
The solubility of the Silymarin-CAPTISOL® complexes prepared using method A and method B were measured.

[2] = Permeation across the porcine intestine (Franz diffusion cell); assay type: in vitro ADME; details: 37° C., receiver PBS pH 7.4
Experimental: The Silymarin-CAPTISOL® complex was tested for its permeability in the GI tract using the porcine intestine and the silymarin solution without CAPTISOL® as a control sample. Freshly excised porcine intestine was cleaned and sandwiched between the two chambers of a Franz diffusion cell with an active diffusion area of 0.64 cm^2. The donor chamber was filled with 0.5 ml of CAPTISOL® enabled silymarin solution (prepared using ligand method) or pure silymarin in Phosphate buffered saline (PBS): Ethanol (80:20) used as a positive control. Receiver chamber was filled with 5 ml of PBS, pH 7.4, which is stirred at 600 rpm with a 3 mm magnetic stir bar at 37° C. temperature maintained with a circulating water bath. 200 μL of buffer from receiver side was withdrawn at different time intervals (0, 1, 2, 4, 6 and 8 h) and equal volume was replaced with fresh PBS buffer. Above samples were transferred into vials and subjected to HPLC analysis.
The control sample was prepared by adding excess of the silymarin extract to Phosphate buffered saline (PBS): Ethanol (80:20). These samples were shook at room temperature for 24 hr, and at equilibrium the samples were centrifuged at 10,000 RPM and filtered using Millipore (0.22 μm) syringe filter. The filtrates were analyzed using HPLC for Taxifolin, Silychristin, Silydianin, Silybin A, Silybin B, Isosilybin A and Isosilybin B after appropriate dilution. […]

- number of fold increase in solubility ([1]; CAPTISOL® 10 mM, Method A (hot extraction 70-75° C., 60 minutes)): 1.95 fold
- number of fold increase in solubility ([1]; CAPTISOL® 10 mM, Method B (ambient temperature, 3 days)): 1.97 fold
- number of fold increase in solubility ([1]; CAPTISOL® 20 mM, Method A (hot extraction 70-75° C., 60 minutes)): 3.32 fold
- number of fold increase in solubility ([1]; CAPTISOL® 20 mM, Method B (ambient temperature, 3 days)): 3.06 fold
- number of fold increase in solubility ([1]; CAPTISOL® 40 mM, Method A (hot extraction 70-75° C., 60 minutes)): 3.54 fold
- number of fold increase in solubility ([1]; CAPTISOL® 40 mM, Method B (ambient temperature, 3 days)): 3.39 fold
- number of fold increase in solubility ([1]; CAPTISOL® 60 mM, Method A (hot extraction 70-75° C., 60 minutes)): 4.26 fold
- number of fold increase in solubility ([1]; CAPTISOL® 60 mM, Method B (ambient temperature, 3 days)): 3.48 fold
- number of fold increase in solubility ([1]; CAPTISOL® 80 mM, Method A (hot extraction 70-75° C., 60 minutes)): 4.51 fold
- number of fold increase in solubility ([1]; CAPTISOL® 80 mM, Method B (ambient temperature, 3 days)): 3.47 fold
- number of fold increase in solubility ([1]; CAPTISOL® 100 mM, Method A (hot extraction 70-75° C., 60 minutes)): 4.77 fold
- number of fold increase in solubility ([1]; CAPTISOL® 100 mM, Method B (ambient temperature, 3 days)): 3.72 fold
- Apparent permeability coefficient Papp × 10^−3 ([2]; Silymarin CAPTISOL® complex in donor chamber): 9.46 × 10^−3
- Apparent permeability coefficient Papp × 10^−3 ([2]; Silymarin in Ethanol:PBS (20:80) (control)): 1.12 × 10^−3
SMILES: O=C1c2c(O)cc(O)cc2O[C@H](c2ccc(O)c(O)c2)[C@H]1O [Taxifolin]

— patent US10702568B2, “Compositions containing silymarin and sulfoalkyl ether cyclodextrin and methods of using the same” (UNIVERSITY OF KANSAS, priority 2015, dated 2020)
